Reference: article PMC8228365, “Degradation Products of Tryptophan in Cell Culture Media: Contribution to Color and Toxicity” (International Journal of Molecular Sciences, 2021)
Like-named read-outs stand apart in the source and are kept apart here.

Tests used:
CHOK1 GS cells = assay: CellTiter-Glo cytotoxicity assay in CHOK1 GS cell line; type: cell-based, Chinese hamster; conditions: Cricetulus griseus
Experimental: To assay the potential toxicity induced in the CHO cell culture by the Trp degradation products found in this study, a cytotoxicity assay CellTiter-Glo® Luminescent Cell Viability Assay (Cat #G7572, Promega, Madison, WI, USA) was used, following the manufacturer’s instructions. Briefly, the cells were seeded with 25,000 viable cells per cavity of a 96-well opaque white cell culture plate (Thermo Fisher, Waltham, MA, USA) in 80 µL of a pre-warmed medium. […] A DMSO control was added in the same concentration range as the tryptophan degradation compounds were diluted.

[1] = Color measurement (ΔE*) of standards spiked into feed; type: physicochemical; conditions: theoretical 500 µM, 1% DMSO, ΔE* > 1 deemed significant
Experimental: (§1) Compounds were dissolved in DMSO at 50 mM and then spiked into the solutions to achieve a final compound concentration of 500µM. Some of the tested compounds formed a precipitate immediately upon spiking of the DMSO solution. As the precipitates in solution can interfere with the absorption measurement, each sample was centrifuged prior to taking absorption measurements, meaning that the final concentrations were not all at 500 µM. […] In stability experiments, eight of these nine compounds (all except 46) were present in at least one condition in the degraded water samples, and four of these nine compounds (28, 31, 38, and 46) were present in the degraded feed.
(§2) Absorbance measurements were taken in the range of 380 nm to 780 nm (20 nm steps) of 100 µL of the samples in four technical replicates (Envision, Perkin Elmer, Waltham, MA, USA). From the absorbance values, the change in color was calculated using L*a*b* and ΔE* values according to DIN 5033-3 and DIN 6174 norms. The CIE 1931 standard observer (2°) and the D65 illuminant were selected.
(§3) Chemical standards were prepared as 50 mM stocks in DMSO and then spiked into the aqueous solutions (either water or feed) to achieve a theoretical compound concentration of 500 µM (1% DMSO). The solutions were centrifuged, and the absorbance measurements of these solutions was measured and converted to ΔE* values as described above. The control condition was pure DMSO (1% v/v).

CHOZN 10 cells = assay: CellTiter-Glo cytotoxicity assay in CHOZN 10 cell line; type: cell-based, Chinese hamster; conditions: Cricetulus griseus, read-out: [GI50] CHOZN 10
Experimental: (§4) To assay the potential toxicity induced in the CHO cell culture by the Trp degradation products found in this study, a cytotoxicity assay CellTiter-Glo® Luminescent Cell Viability Assay (Cat #G7572, Promega, Madison, WI, USA) was used, following the manufacturer’s instructions. Briefly, the cells were seeded with 25,000 viable cells per cavity of a 96-well opaque white cell culture plate (Thermo Fisher, Waltham, MA, USA) in 80 µL of a pre-warmed medium. Tryptophan degradation compounds were added in triplicates to the cells, ranging from 1 mM to 46 nM. A DMSO control was added in the same concentration range as the tryptophan degradation compounds were diluted. The dose response curves were fitted with a 4PL model by GraphPad Prism v.7 (GraphPad Software, San Diego, CA, USA) after luminescence readout with an EnVision 2104 Multilabel Reader (Perkin Elmer, Waltham, MA, USA).

[2] = Color measurement (ΔE*) of standards spiked into water; type: physicochemical; conditions: theoretical 500 µM, 1% DMSO, ΔE* > 1 deemed significant
Experimental: as §1, §2, §3

CHOZN 6 cells = assay: CellTiter-Glo cytotoxicity assay in CHOZN 6 cell line; type: cell-based, Chinese hamster; conditions: Cricetulus griseus, read-out: [GI50] CHOZN 6
Experimental: as §4

CHOK1 cells = assay: CellTiter-Glo cytotoxicity assay in CHOK1 cell line; type: cell-based, Chinese hamster; conditions: Cricetulus griseus
Experimental: as §4

CHO cells [3] = assay: CHO cell toxicity summarised across the four CHO cell lines; type: cell-based, Chinese hamster; conditions: Cricetulus griseus; across all four CHO cell lines; read-out: GI50 across all cell lines
Experimental: as §4

cancer cell lines = tested on: cancer cell lines; set-up: method as in PMID 22047643; conditions: cited from earlier work
CHO cells [4] = conditions: cited from earlier work
[5] = Degradation of tryptophan in water under stressed conditions; type: physicochemical; conditions: 10 mM Trp in water pH 7, 70 °C, after 24 days
Experimental: For the Trp solutions, 10 mM Trp solutions were prepared in water with a pH adjustment to pH 7.0 ± 0.3 using NaOH(aq.) and sterile filtered with Steriflip® filter units (Merck, Darmstadt, Germany). For H2O2 exposure testing, the solutions were spiked with hydrogen peroxide (30%, 8.82 M) to 0, 10, 25, 50, or 100 mM, and stored for 4h at RT (~19–23 °C), light-protected. For the UV exposure effects, the solutions were stored for 4 h under a UV-lamp set to an intensity of 540 V (UV-A, -B and -C radiation). Samples tested for temperature effects were stored light-protected for 24 days at 4 °C, room temperature (RT, i.e., ~19–23 °C), 37 °C, or 70 °C. Feed solutions were sterile-filtered as above and stored for 98 days at 4 °C, RT (~19–23 °C) or 37 °C. The samples were either stored light-protected or exposed to laboratory fluorescent lighting with partial exposure to glass-filtered daylight (light-exposed). For testing the a-ketoglutaric acid effects in feed, dry powder feed was reconstituted with a-ketoglutaric acid, pH adjusted to 7.0 ± 0.3 with NaOH (aq.), filtered as above, and stored light-protected at RT (~19–23 °C) or 37 °C for 98 days. Ammonia was quantified using Cedex Bio HT (Roche, Mannheim, Germany). Aliquots were frozen at −20 °C for subsequent amino acid analysis and LC-MS.
Amino acid analysis was performed using a pre-column derivatization using the AccQ Tag® Ultra Reagent kit. […]

[6] = CHO-K1, CHOK1 GS cell line, 1 mM to 46 nM, 4PL fit, read-out: [GI50] CHOK1 GS
[7] = CHOZN 10 cell line, 1 mM to 46 nM, 4PL fit
[8] = CHOZN 6 cell line, 1 mM to 46 nM, 4PL fit
[9] = CHO-K1, CHOK1 cell line, 1 mM to 46 nM, 4PL fit, read-out: [GI50] CHOK1
[10] = CHO-K1, read-out: [GI50] CHOK1 GS

Nc1ccccc1C(=O)CC(N)C(=O)O (centres unmarked) [Compound 1, Kynurenine]
GI50 (CHOK1 GS cells; [6]): > 1000 µM

NC(CC(=O)c1ccccc1NC=O)C(=O)O (centres unmarked) [Compound 2, N-Formylkynurenine]
GI50 (CHOK1 GS cells; [6]): > 1000 µM

NC(CC1C(=O)Nc2ccccc21)C(=O)O (centres unmarked) [Compound 3, 2-amino-3-(2-oxo-2,3-dihydro-1h-indol-3-yl)propanic acid (Oia)]
GI50 (CHOK1 GS cells; [6]): > 1000 µM

NC(CC1(O)C(=O)Nc2ccccc21)C(=O)O [Compound 4, 3-(3-Hydroxy-2-oxo-2,3-dihydro-1H-indol-3-yl)-L-alanine (diOia)]
GI50 (CHOK1 GS cells; [6]): > 1000 µM

O=C(O)c1nccc2c1[nH]c1ccccc12 [Compound 5, 9H-Pyrido[3,4-b]indole-1-carboxylic acid]
Color change as measured by ΔE* in feed [1]: significant color change
GI50 (CHOZN 10 cells; [7]): 75.5 µM
Color change as measured by ΔE* in water [2]: significant color change
GI50 (CHOZN 6 cells; [8]): 76.7 µM
GI50 (CHOK1 cells; [9]): 158 µM
GI50 (CHOK1 GS cells; [6]): 118 µM

O=C(O)C1CC2(O)c3ccccc3NC2N1 (centres unmarked) [Compound 6, 1,2,3,3a,8,8a-Hexahydro-3a-hydroxypyrrolo[2,3-b]indole-2-carboxylic acid (PIC)]
GI50 (CHOK1 GS cells; [6]): > 1000 µM

c1ccc2ncccc2c1 [Compound 8, Quinoline]
GI50 (CHOK1 GS cells; [10]): > 1000 µM

NCCc1c(O)[nH]c2ccccc12 [Compound 9]
GI50 (CHOK1 GS cells; [6]): > 1000 µM

OC12CCNC1Nc1ccccc12 (centres unmarked) [Compound 10]
GI50 (CHOK1 GS cells; [6]): > 1000 µM

NCCc1c[nH]c2ccccc12 [Compound 11, Tryptamine]
GI50 (CHOK1 GS cells; [10]): > 1000 µM

O=CCc1c[nH]c2ccccc12 [Compound 12, Indole-3-acetaldehyde]
GI50 (CHOZN 10 cells; [7]): 92.3 µM
GI50 (CHOZN 6 cells; [8]): 54.5 µM
GI50 (CHOK1 cells; [9]): 116 µM
GI50 (CHOK1 GS cells; [6]): 64.5 µM

N[C@@H](Cc1c(Cc2c[nH]c3ccccc23)[nH]c2ccccc12)C(=O)O [Compound 14, 2-(3-Indolylmethyl)-L-tryptophan]
GI50 (CHOK1 GS cells; [6]): > 1000 µM

O=C(O)c1cc2c([nH]c3ccccc32)c(-c2ccccc2)n1 [Compound 16]
GI50 (CHOZN 10 cells; [7]): 57.6 µM
Color change as measured by ΔE* in water [2]: significant color change
GI50 (CHOZN 6 cells; [8]): 88.5 µM
GI50 (CHOK1 cells; [9]): 74.9 µM
GI50 (CHOK1 GS cells; [6]): 76.6 µM

O=Cc1c[nH]c2ccccc12 [Compound 18, Indole-3-carboxaldehyde]
GI50 (CHO cells [3]): > 226 µM
GI50 (CHOZN 10 cells; [7]): 258 µM
GI50 (CHOZN 6 cells; [8]): 236 µM
GI50 (CHOK1 cells; [9]): 226 µM
GI50 (CHOK1 GS cells; [6]): 295 µM

O=C1Cc2ccccc2N1 [Compound 19, 2-Oxindole]
GI50 (CHOK1 GS cells; [6]): > 1000 µM

Oc1ccnc2ccccc12 [Compound 20, 4-Hydroxyquinoline]
GI50 (CHOK1 GS cells; [10]): > 1000 µM

O=C(O)c1ccnc2ccccc12 [Compound 21, 4-Quinolinecarboxylic acid]
GI50 (CHOK1 GS cells; [6]): > 1000 µM

CC1NC(C(=O)O)Cc2c1[nH]c1ccccc21 (stereo not drawn) [Compound 23, 1-Methyl-2,3,4,9-tetrahydro-1H-beta-carboline-3-carboxylic acid]
GI50 (CHOK1 GS cells; [6]): > 1000 µM

O=C(O)C1Cc2c([nH]c3ccccc23)C=N1 (centres unmarked) [Compound 24]
Color change as measured by ΔE* in feed [1]: significant color change
GI50 (CHO cells [3]): > 226 µM
GI50 (CHOZN 10 cells; [7]): 306 µM
Color change as measured by ΔE* in water [2]: significant color change
GI50 (CHOZN 6 cells; [8]): 314 µM
GI50 (CHOK1 cells; [9]): 312 µM
GI50 (CHOK1 GS cells; [6]): 343 µM

CC1NC(C(=O)O)CC12C(=O)Nc1ccccc12 (centres unmarked) [Compound 25]
GI50 (CHOK1 GS cells; [6]): > 1000 µM

c1ccc2c(c1)[nH]c1cnccc12 [Compound 27, Norharmane]
GI50 (CHOZN 10 cells): 64.5 µM
GI50 (CHOZN 6 cells): 98.5 µM
GI50 (CHOK1 cells; CHO-K1, read-out: [GI50] CHOK1): 74.8 µM
GI50 (CHOK1 GS cells; [10]): 127 µM

Cc1nccc2c1[nH]c1ccccc12 [Compound 28, Harmane]
Color change as measured by ΔE* in feed [1]: significant color change
GI50 (CHOZN 10 cells): 77.3 µM
GI50 (CHOZN 6 cells): 65.5 µM
GI50 (CHOK1 cells; CHO-K1, read-out: [GI50] CHOK1): 74.9 µM
GI50 (CHOK1 GS cells; [10]): 170 µM

OCc1nccc2c1[nH]c1ccccc12 [Compound 29]
GI50 (CHOZN 10 cells; [7]): 347 µM
GI50 (CHOZN 6 cells; [8]): > 1000 µM
GI50 (CHOK1 cells; [9]): 389 µM
GI50 (CHOK1 GS cells; [6]): 157 µM

O=C(O)c1cc2c([nH]c3ccccc32)c(C(=O)c2c[nH]c3ccccc23)n1 [Compound 31, 1-(1H-Indol-3-ylcarbonyl)-9H-pyrido[3,4-b]indole-3-carboxylic acid]
Color change as measured by ΔE* in feed [1]: significant color change
GI50 (CHO cells [3]): 10 to 22 µM
GI50 (CHOZN 10 cells; [7]): 14.4 µM
GI50 (CHOZN 6 cells; [8]): 13 µM
toxicity against some cancer cell lines (cancer cell lines): demonstrated toxicity against some cancer cell lines
GI50 (CHOK1 cells; [9]): 21.6 µM
GI50 (CHOK1 GS cells; [6]): 34.6 µM

O=C(c1c[nH]c2ccccc12)c1nccc2c1[nH]c1ccccc12 [Compound 32, 1H-Indol-3-yl-9H-pyrido[3,4-b]indol-1-ylmethanone]
toxicity against some cancer cell lines (cancer cell lines): demonstrated toxicity against some cancer cell lines
GI50 (CHOK1 GS cells; [6]): > 1000 µM

O=C(O)c1cc2c([nH]c3ccccc32)c(-c2ccnc3ccccc23)n1 [Compound 38]
GI50 (CHOZN 10 cells; [7]): 114 µM
Color change as measured by ΔE* in water [2]: significant color change
GI50 (CHOZN 6 cells; [8]): 98.9 µM
GI50 (CHOK1 cells; [9]): 124 µM
GI50 (CHOK1 GS cells; [6]): 118 µM

Cc1ncc(CO)c(C2NC(C(=O)O)Cc3c2[nH]c2ccccc32)c1O (centres unmarked) [Compound 42]
GI50 (CHOK1 GS cells; [6]): > 1000 µM

Cc1nc(C(=O)O)cc2c1[nH]c1ccccc12 [Compound 45]
GI50 (CHOK1 GS cells; [6]): > 1000 µM

NC(=O)Cc1c[nH]c2ccccc12 [Compound 47, 3-Indoleacetamide]
GI50 (CHOK1 GS cells; [6]): > 1000 µM

CC(C)CC1NC(C(=O)O)Cc2c1[nH]c1ccccc21 (centres unmarked) [Compound 56, 2,3,4,9-Tetrahydro-1-(2-methylpropyl)-1H-pyrido[3,4-b]indole-3-carboxylic acid]
GI50 (CHOK1 GS cells; [6]): > 1000 µM

CC(=O)c1nccc2c1[nH]c1ccccc12 [Compound 62, 1-Acetyl-β-carboline]
GI50 (CHOK1 GS cells; [6]): > 1000 µM

O=C(O)CCC(=O)O [Compound 66, succinic acid]
toxicity to CHO cells (CHO cells [4]): not toxic to CHO cells

N[C@@H](Cc1c[nH]c2ccccc12)C(=O)O [Trp, L-Tryptophan]
Trp total loss [5]: 42%

O=C(O)CCC(=O)C(=O)O [aKG, a-Ketoglutaric acid]
effect on the CHO cell culture (CHO cells [4]; up to 50 mM): no detrimental effect
